Assay results: patent US9145375B2, “Quinazolinone compounds” (PRANA BIOTECHNOLOGY LIMITED, priority 2008, dated 2015)

Columns and labels:
CYP1A2 = target: T1, CYP1A2 (Homo sapiens, UniProt P05177); test: CYP450 inhibition, specific substrate approach in human liver microsomes: CYP1A2; format: in vitro ADME
T1 construct: using a specific substrate approach in human liver microsomes; from tissue; host or cells: human liver microsomes
T1 sequence (P05177 1-516): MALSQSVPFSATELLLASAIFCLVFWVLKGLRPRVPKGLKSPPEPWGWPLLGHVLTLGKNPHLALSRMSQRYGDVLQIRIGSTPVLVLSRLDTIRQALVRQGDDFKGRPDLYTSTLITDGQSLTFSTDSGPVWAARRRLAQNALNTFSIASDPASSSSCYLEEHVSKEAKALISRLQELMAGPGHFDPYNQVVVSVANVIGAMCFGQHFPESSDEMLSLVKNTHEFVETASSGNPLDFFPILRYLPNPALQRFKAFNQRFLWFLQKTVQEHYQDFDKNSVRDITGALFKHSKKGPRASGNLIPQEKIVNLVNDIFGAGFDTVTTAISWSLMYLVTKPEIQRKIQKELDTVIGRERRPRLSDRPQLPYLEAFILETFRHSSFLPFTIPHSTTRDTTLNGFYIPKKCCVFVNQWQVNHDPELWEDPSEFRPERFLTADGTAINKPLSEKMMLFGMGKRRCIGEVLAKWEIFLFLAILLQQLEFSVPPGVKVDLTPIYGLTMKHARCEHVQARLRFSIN
Method: (§1) CYP450 Isoform Inhibition Using a Specific Substrate Approach
(§2) The present study is a “Tier 2” screen to assess potential enzyme inhibition at a test compound concentration of 20 μM using a specific substrate approach in human liver microsomes.
(§3) The substrate specific enzyme inhibition study relies on the formation of a metabolite that is mediated by a specific CYP450 isoform using human liver microsomes. In the current study, the following reactions were monitored to assess interactions with specific CYP450 isoforms. A known inhibitor of each isoform was included in each assay as a positive control. The following IC50 values have been reported in the literature using equivalent assay conditions for each CYP450 isoform:
(§4) The reaction was initiated by the addition of an NADPH-regenerating system and was quenched by the addition of acetonitrile prior to determining the concentration (and apparent rate of formation) of the specific metabolite by LC/MS.
(§5) The IC50 was deemed to be the concentration at which there was a 50% reduction in the amount of metabolite formed, relative to the maximal extent of formation.

[1] = tested on: 6-OHDA lesion of the SNpc; test: Parkinson's disease in vivo: 6-OHDA model; parameters: species or system mouse; conditions: 6-OHDA lesioned mice
Method: Parkinson's Disease In Vivo Technique: 6-OHDA Model
Preparation of the toxin 6-OHDA (1.65 mg/mL, Sigma Cat# H-4381):
6-OHDA toxin is dissolved in ascorbic acid solution (0.2 mg/mL in dH2O), store in dark on ice. To increase the speed of anaesthesia and reduce stress to the mouse, there is premedication with atropine (0.5 mg/kg) and xylazine (10 mg/kg) is injected subcutaneously via a 27 gauge needle).
To Prepare the Lesion Needle to Inject 6-OHDA:
PBS is sucked up into the line (ensure no air bubbles) with up to […] in a Hamilton syringe. Syringe is placed the in the Kd Scientific syringe pump and secured. Pump is turned the on and syringe is loaded into the pump. Pump volume is set at […] and the rate is set at 0.5 ml/min. The lesion needle is positioned so that the bevelled (eye) of the needle is at a 45° angle from the midline and tightened to secure the needle. Pump is run and checked for fluid coming out.
3-4% isoflurane is carried by oxygen to induce anaesthesia and 1-2% for maintenance of anaesthesia. Animal is placed in small induction chamber and subjected to a few minutes of 4% isoflurane in oxygen at a flow rate of approx 1 l/min. Mouse is then placed in stereotaxic frame. The anaesthetic tube is disconnected from induction box and isoflurane reduced to 2% conc and oxygen flow rate to approx […]. Tube is connected to the nose piece attached to stereotaxic frame so that anaesthetic gas can be constantly administered during surgery. LHS ear bar is screwed at approx 3 mm. RHS ear bar is screwed in until there is no sideways head movement (about 5 mm). Front incisors are placed over the mouthguard and put nose-guard on (3 mm below 0). Mouthguard is screwed into place and ensured the top of the mouse's head is level (re-check this once the animal's skull is exposed).
Using a scalpel (size 4, blade 22), the scalp is cut down the centreline of the mouse's head to expose the skull. Typically 10-15 mm. The surface of the skull is dried with a cotton bud. Drill hole is measured with a ruler 3 mm posterior from Bregma and between 1 and 1.5 mm laterally from the centre line. The skull is drilled into this position until the surface of the brain is exposed.
6-OHDA is sucked up to fill approximately 15 cm of the line and the syringe. Fluid is ensured to be coming out of needle. The bevelled of the needle is aligned over the centreline where Bregma crosses, viewed by Motik dissecting microscope. The needle is ensured to be a few mm above the skull before positioning. Frame is moved 2.9 mm in a posterior direction and 1.1 mm (11 small notches) laterally to the right (for RHS injections) from the starting coordinates at Bregma. Needle is moved down until the tip of the needle just touches the surface of the brain.
Needle is lowered to the required depth of 4.6 mm and brain is allowed to settle for 2 min.
[…] of toxin is injected into the RHS SNpc, taking 4 min. 2 min is allowed to ensure the toxin disperses. Needle is withdrawn and antiseptic applied to the wound, with suture or superglue to close.
Mouse is wrapped in a piece of tissue and placed in a warm recovery box (on a heat pad) with water bottles (50 ml tubes) warmed to 50 C. Panadol® syrup is added to mouse's water bottle.
Rotation is recorded by the Computer based Rotacount system—(Columbus Instruments, Columbus, Ohio, USA). The system comprised of 8 bowls with sensors connected to a computer which measures incremental turns (90 degrees and full turns 360 degrees) either clockwise or counter clockwise. The sensors are positioned above the centre of each bowl about 30 cm above each. Tubing and a thin empty plastic pipette are attached so that the sensor is now extended to with a few cm of the base of the bowl.
Mice are placed individually into the eight bowls. Mice are secured to the pipettes via a cable tie and tape. […]

[2] = Metabolism in hepatocytes (predicted EH), human; format: in vitro ADME
CYP2C19 = target: T2, CYP2C19 (Homo sapiens, UniProt P33261); test: CYP450 inhibition, specific substrate approach in human liver microsomes: CYP2C19; format: in vitro ADME
T2 construct: using a specific substrate approach in human liver microsomes; from tissue; host or cells: human liver microsomes
T2 sequence (P33261 whole entry): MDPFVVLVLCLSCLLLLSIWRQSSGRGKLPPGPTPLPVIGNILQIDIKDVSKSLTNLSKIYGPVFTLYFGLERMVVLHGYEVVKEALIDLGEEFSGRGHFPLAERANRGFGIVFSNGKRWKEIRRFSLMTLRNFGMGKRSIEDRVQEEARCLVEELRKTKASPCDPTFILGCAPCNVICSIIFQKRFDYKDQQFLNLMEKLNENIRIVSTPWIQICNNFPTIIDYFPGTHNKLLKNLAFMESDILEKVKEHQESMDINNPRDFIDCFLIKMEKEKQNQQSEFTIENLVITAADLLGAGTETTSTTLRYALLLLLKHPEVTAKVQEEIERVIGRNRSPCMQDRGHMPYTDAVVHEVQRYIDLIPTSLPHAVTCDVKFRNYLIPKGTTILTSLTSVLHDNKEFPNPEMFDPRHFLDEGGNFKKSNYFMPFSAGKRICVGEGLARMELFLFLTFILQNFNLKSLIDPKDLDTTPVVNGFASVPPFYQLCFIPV
Method: as §1, §2, §3, §4, §5

| SMILES | IC50 (CYP1A2) [µM] | Metabolism (Predicted EH), Hepatocytes: Human [2] | IC50 (CYP2C19) [µM] | Behaviour (Rotation) % SSV ([1]; 5 mg kg) [%] | Behaviour (Rotation) total turns/h ± SD ([1]; 5 mg kg) | SN cell counts % of SSV (SSV = 0%) ([1]; 5 mg kg) [%] | SN cell counts (cells ± SD) ([1]; 5 mg kg) | Behaviour (Rotation) % SSV ([1]; 15 mg kg) [%] | Behaviour (Rotation) total turns/h ± SD ([1]; 15 mg kg) | SN cell counts % of SSV (SSV = 0%) ([1]; 15 mg kg) [%] | SN cell counts (cells ± SD) ([1]; 15 mg kg) | Behaviour (Rotation) % SSV ([1]; 30 mg kg) [%] | Behaviour (Rotation) total turns/h ± SD ([1]; 30 mg kg) | SN cell counts % of SSV (SSV = 0%) ([1]; 30 mg kg) [%] | SN cell counts (cells ± SD) ([1]; 30 mg kg) | Behaviour (Rotation) % SSV ([1]; SSV = 0%, dose not given) [%] | Behaviour (Rotation) total turns/h ± SD ([1]; dose not given) | SN cell counts % of SSV (SSV = 0%) ([1]; dose not given) [%] | SN cell counts (cells ± SD) ([1]; dose not given) |
| --- | --- | --- | --- | --- | --- | --- | --- | --- | --- | --- | --- | --- | --- | --- | --- | --- | --- | --- | --- |
| C#CCN(C)Cc1nc2c(O)c(Cl)cc(Cl)c2c(=O)n1CC1CC1 [Compound F4387] | – | – | – | – | – | – | – | – | – | – | – | – | – | – | – | 24.51 | (195.57 ± 114.48) turns/h | 46.90 | (2821.24 ± 940.22) cells |
| CCN(CC)Cc1nc2c(O)c(Cl)cc(Cl)c2c(=O)n1CC1CC1 [Compound F4385] | 13.4 | 0.55 | > 30 | – | – | – | – | – | – | – | – | – | – | – | – | 49.98 | (129.57 ± 16.26) turns/h | 56.81 | (3011.56 ± 502.27) cells |
| CNCc1nc2c(O)c(Cl)cc(Cl)c2c(=O)n1C [Compound F4161] | – | 0.20 | – | – | – | – | – | – | – | – | – | – | – | – | – | – | – | – | – |

Now from value to molecule, other results behind:

| IC50 (CYP1A2) [µM] | Metabolism (Predicted EH), Hepatocytes: Human [2] | IC50 (CYP2C19) [µM] | SMILES | Behaviour (Rotation) % SSV ([1]; 5 mg kg) [%] | Behaviour (Rotation) total turns/h ± SD ([1]; 5 mg kg) | SN cell counts % of SSV (SSV = 0%) ([1]; 5 mg kg) [%] | SN cell counts (cells ± SD) ([1]; 5 mg kg) | Behaviour (Rotation) % SSV ([1]; 15 mg kg) [%] | Behaviour (Rotation) total turns/h ± SD ([1]; 15 mg kg) | SN cell counts % of SSV (SSV = 0%) ([1]; 15 mg kg) [%] | SN cell counts (cells ± SD) ([1]; 15 mg kg) | Behaviour (Rotation) % SSV ([1]; 30 mg kg) [%] | Behaviour (Rotation) total turns/h ± SD ([1]; 30 mg kg) | SN cell counts % of SSV (SSV = 0%) ([1]; 30 mg kg) [%] | SN cell counts (cells ± SD) ([1]; 30 mg kg) | Behaviour (Rotation) % SSV ([1]; SSV = 0%, dose not given) [%] | Behaviour (Rotation) total turns/h ± SD ([1]; dose not given) | SN cell counts % of SSV (SSV = 0%) ([1]; dose not given) [%] | SN cell counts (cells ± SD) ([1]; dose not given) |
| --- | --- | --- | --- | --- | --- | --- | --- | --- | --- | --- | --- | --- | --- | --- | --- | --- | --- | --- | --- |
| 15.3 | 0.44 | > 30 | CN(C)Cc1nc2c(O)c(Cl)cc(Cl)c2c(=O)n1CC1CC1 [Compound F4267] | 7.01 | (240.89 ± 171.99) turns/h | 55.79 | (2992.00 ± 883.84) cells | −23.39 | (319.67 ± 171.05) turns/h | 77.86 | (3415.96 ± 498.05) cells | 36.33 | (164.93 ± 110.90) turns/h | 110.44 | (4041.70 ± 799.55) cells | – | – | – | – |
| 13.7 | 0.22 | > 30 | CCNCc1nc2c(O)c(Cl)cc(Cl)c2c(=O)n1CC [Compound F4495] | – | – | – | – | – | – | – | – | – | – | – | – | 18.06 | (212.29 ± 101.41) turns/h | 57.22 | (3019.56 ± 318.79) cells |
| 22 | 0.43 | > 30 | Br.CCNCc1nc2c(O)c(Cl)cc(Cl)c2c(=O)n1C [Compound F4496] | – | – | – | – | – | – | – | – | – | – | – | – | 36.62 | (164.20 ± 100.40) turns/h | 95.68 | (3758.11 ± 510.98) cells |
| ~20 | 0.28 | > 20 | CCn1c(CN(C)C)nc2c(O)c(Cl)cc(Cl)c2c1=O.Cl [Compound F4268] | – | – | – | – | – | – | – | – | – | – | – | – | 56.04 | (114.56 ± 71.86) turns/h | 93.96 | (3725.04 ± 842.65) cells |
| 24.1 | 0.38 | > 30 | CN(C)Cc1nc2c(O)c(Cl)cc(Cl)c2c(=O)n1C [Compound F4269, 5,7-Dichloro-2-(dimethylamino)methyl-8-hydroxy-3-methylquinazolin-4(3H)-one] | – | – | – | – | – | – | – | – | – | – | – | – | 48.85 | (132.50 ± 81.93) turns/h | 68.91 | (3243.93 ± 724.98) cells |
